Laboratory results: paper PMC7432809, “Antimicrobial Activity of Small Synthetic Peptides Based on the Marine Peptide Turgencin A: Prediction of Antimicrobial Peptide Sequences in a Natural Peptide and Strategy for Optimization of Potency” (International Journal of Molecular Sciences, 2020)
Where no end group is shown, it is not given here.

Legend:
[1] = test system: B. subtilis 168 (pCSS962); test: Real-time membrane integrity assay (luciferase, D-luciferin); type: cell-based, Bacillus subtilis; conditions: lowest concentration tested
From the text: (§1) Based on the results from antibacterial screening and the bacterial killing experiment, StAMP-6-10 were further studied for their immediate effect on the membrane integrity and viability on B. subtilis 168 and E. coli K12. In the integrity assay, both bacteria are carrying the luciferase lucGR gene within the plasmid pCSS962. When a compound disrupts the membrane, externally added D-luciferin can diffuse into the cells and function as a substrate for the luciferase enzyme. This, in turn, causes the emission of light as relative luminescence units (RLU), a signal whose strength is relative to the degree of membrane disruption in living cells. If the test compound affects the membrane sufficiently to cause bacterial death, the RLU signal will increase until the bacterial ATP storage is empty. At this time, the RLU signal will decrease in line with the decreasing ATP concentrations, as the enzymatic reaction gradually stops. […] Following membrane disruption, the RLU will reach its peak and start to decrease due to reduced cell numbers. In the assay setup used herein, RLU was measured over a period of 3 min. The short time period was selected as many membrane disruptive compounds usually affect the bacterial membranes immediately. […]

E. coli K12 (pCSS962) = test: as above; type: cell-based, Escherichia coli; conditions: lowest concentration tested
From the text: as §1

B. subtilis 168 = test: Real-time bacterial cell viability assay (lux operon); type: cell-based, Bacillus subtilis; conditions: lowest concentration tested
From the text: (§2) A real-time cell viability assay was used to investigate the bactericidal effect of StAMP-6-10. B. subtilis 168 contains a chromosomally integrated lux operon, and E. coli K12 a plasmid-borne lux operon. Both strains emit light as long as they have an active metabolism. If a compound reduces the metabolic activity of the bacteria it will reduce the viability of the cells. […] The decrease in light emission caused by StAMP-8-10 shown in both assays confirmed that these three peptides killed both strains at 50 µg/mL, but not as rapidly as the control chlorhexidine. The same activity observed for StAMP-8-10 in the membrane integrity assay was also observed in both viability assays (Figures S7–S12). […] Only at the lowest concentration tested (0.8 µg/mL), was there no observed membrane activity for these assays.
(§3) A real-time cell viability assay (modified from) was performed using B. subtilis 168 carrying an optimized luxABCDE operon controlled by the promoter Pveg, and E. coli K12 carrying the plasmid pCGLS-11 [53] with the luxCDABE operon from Xenorhabdus luminescence. The procedure was conducted as previously described. The bacteria (~5 × 10^7 bacteria/mL) were subjected to ranging concentrations of StAMP-6-10 (50–3.1 µg/mL) and the positive control to chlorhexidine acetate (assay concentrations 100–1.6 µg/mL). MQ-H2O was used as a negative control. […]

E. coli K12 (pCGLS-11) = test: as above; type: cell-based, Escherichia coli; conditions: lowest concentration tested
From the text: as §2, §3

[2] = test system: Escherichia coli (ATCC 25922); test: microbe, parasite or virus in culture; type: cell-based; conditions: ATCC 25922, 24 h
Procedure: (§4) Two strains of G- bacteria, P. aeruginosa (Pa, ATCC 27853) and E. coli (Ec, ATCC 25922), were also used. Cultures stored at -80 °C in glycerol were transferred to Müller–Hinton plates (MH, Difco Laboratories, Detroit, MI, USA) and incubated for 24 h at 35 °C. Colonies of each strain were transferred to 5 mL liquid MH medium and left shaking (600 rpm) at room temperature overnight. An aliquot of actively growing bacteria (20 µL) was inoculated in 5 mL MH medium and left shaking for 2 h at room temperature. In order to have a sensitive bioassay, the bacterial cultures were diluted with medium to only 2.5–3 × 10^4 bacteria/mL and an aliquot of 50 µL was added to each well in 96 microwell plates (Thermo Fisher Scientific, Roskilde, Denmark) preloaded with peptide solution (50 µL). The antibacterial assays were performed as previously described. The microtiter plates were incubated for 24 h at 35 °C with optical density (595 nm) recorded every hour using an Envision 2103 multilabel reader, controlled by a Wallac Envision manager (PerkinElmer, Waltham, MA, USA). The minimum inhibitory concentration (MIC) was defined as the sample concentration showing an optical density less than 10% of the negative (growth) control, consisting of bacteria and MQ-H2O. Oxytetracycline (concentrations ranging from 20–0.02 µg/mL, Sigma-Aldrich) and indolicidin (concentration ranging from 200–0.2 µg/mL, Sigma-Aldrich) served as a positive (inhibition) control. The synthetic peptides were tested for antibacterial activity in concentrations ranging from 250 to 0.5 µg/mL in two-fold dilutions. All tests were performed in triplicates.

[3] = test system: Pseudomonas aeruginosa (ATCC 27853); test: microbe, parasite or virus in culture; type: cell-based; conditions: ATCC 27853, 24 h
Procedure: as §4

[4] = test system: Bacillus subtilis (ATCC 23857); test: microbe, parasite or virus in culture; type: cell-based; conditions: ATCC 23857, 24 h
Procedure: (§5) The synthesized peptides were screened for antibacterial activity against five strains of G+ bacteria: B. subtilis (Bs, ATCC 23857), C. glutamicum (Cg, ATCC 13032), S. aureus (Sa, ATCC 9144), Micrococcus luteus (Ml), B. megaterium (Bm) (the last two were obtained from professor Olaf B. Styrvold, UiT The Arctic University of Norway).
as §4

Bacillus megaterium = test: microbe, parasite or virus in culture; type: cell-based; conditions: Bacillus, 24 h
Procedure: as §5, §4

[5] = test system: Staphylococcus aureus (ATCC 9144); test: microbe, parasite or virus in culture; type: cell-based; conditions: ATCC 9144, 24 h
Procedure: as §5, §4

Micrococcus luteus = test: microbe, parasite or virus in culture; type: cell-based; conditions: 24 h
Procedure: as §5, §4

[6] = test system: Corynebacterium glutamicum (ATCC 13032); test: microbe, parasite or virus in culture; type: cell-based; conditions: ATCC 13032, 24 h
Procedure: as §5, §4

three fungal strains = type: cell-based; conditions: 24 h
Procedure: StAMP-1–11 were screened for antifungal activity against C. albicans (Ca, ATCC 10231), A. pullulans (Ap) and Rhodotorula sp. (Rh) (the last two were obtained from professor Arne Tronsmo, The Norwegian University of Life Sciences, Ås, Norway). The antifungal assay was performed as previously described with a few modifications. Briefly, fungal spores were dissolved in potato dextrose broth (Difco Laboratories) with 2% D(+)-glucose (Merck, Darmstadt, Germany) to a concentration of 4 × 10^5 spores/mL. The spores (50 µL) were inoculated on 96 microwell plates (Thermo Fisher Scientific) containing the synthetic peptides (50 µL) and controls (water or antibiotic). The peptides were diluted in MQ-H2O at final concentrations ranging from 250–3.9 µg/mL in two-fold serial dilutions. Triclosan (Sigma-Aldrich, Steinheim, Germany) was used as a positive (antifungal) control (32–0.25 µg/mL), and MQ-H2O as a negative (growth) control. […] Growth inhibition was determined by measuring OD values at 600 nm by a microplate reader (Synergy H1 Hybrid Multi-Mode Reader, BioTek, Winooski, VT, USA). […] All experiments were done in triplicate.

[7] = test system: Candida albicans (ATCC 10231); test: microbe, parasite or virus in culture; type: cell-based; conditions: ATCC 10231, 24 h
Procedure: (§6) StAMP-1–11 were screened for antifungal activity against C. albicans (Ca, ATCC 10231), A. pullulans (Ap) and Rhodotorula sp. (Rh) (the last two were obtained from professor Arne Tronsmo, The Norwegian University of Life Sciences, Ås, Norway). The antifungal assay was performed as previously described with a few modifications. Briefly, fungal spores were dissolved in potato dextrose broth (Difco Laboratories) with 2% D(+)-glucose (Merck, Darmstadt, Germany) to a concentration of 4 × 10^5 spores/mL. The spores (50 µL) were inoculated on 96 microwell plates (Thermo Fisher Scientific) containing the synthetic peptides (50 µL) and controls (water or antibiotic). The peptides were diluted in MQ-H2O at final concentrations ranging from 250–3.9 µg/mL in two-fold serial dilutions. Triclosan (Sigma-Aldrich, Steinheim, Germany) was used as a positive (antifungal) control (32–0.25 µg/mL), and MQ-H2O as a negative (growth) control. Cultures were grown in room temperature for 24 h (Ca) and 48 h (Ap and Rh). Growth inhibition was determined by measuring OD values at 600 nm by a microplate reader (Synergy H1 Hybrid Multi-Mode Reader, BioTek, Winooski, VT, USA). […] All experiments were done in triplicate.

Rhodotorula sp. = test: microbe, parasite or virus in culture; type: cell-based; conditions: 48 h
Procedure: as §6

Aureobasidium pullulans = test: microbe, parasite or virus in culture; type: cell-based; conditions: 48 h
Procedure: as §6

[8] = test system: all seven bacterial test strains; type: cell-based; conditions: 24 h
Procedure: as §5
as §4, with “The minimum inhibitory concentration (MIC) was defined as the sample concentration showing an optical density less than 10% of the negative (growth) control, consisting of bacteria and MQ-H2O. Oxytetracycline (concentrations ranging from 20–0.02 µg/mL, Sigma-Aldrich) and indolicidin (concentration ranging from 200–0.2 µg/mL, Sigma-Aldrich) served as a positive (inhibition) control. The synthetic peptides were tested for antibacterial activity in concentrations ranging from 250 to 0.5 µg/mL in two-fold dilutions. All tests were performed in triplicates.” left out

G- strains = test: Antibacterial assay, MIC range over G- strains; type: cell-based; conditions: range over the two G- test strains
Procedure: as §5
as §4, with “The minimum inhibitory concentration (MIC) was defined as the sample concentration showing an optical density less than 10% of the negative (growth) control, consisting of bacteria and MQ-H2O. Oxytetracycline (concentrations ranging from 20–0.02 µg/mL, Sigma-Aldrich) and indolicidin (concentration ranging from 200–0.2 µg/mL, Sigma-Aldrich) served as a positive (inhibition) control. The synthetic peptides were tested for antibacterial activity in concentrations ranging from 250 to 0.5 µg/mL in two-fold dilutions. All tests were performed in triplicates.” left out

G+ strains = test: Antibacterial assay, MIC range over G+ strains; type: cell-based; conditions: range over the five G+ test strains
Procedure: as §5
as §4, with “The minimum inhibitory concentration (MIC) was defined as the sample concentration showing an optical density less than 10% of the negative (growth) control, consisting of bacteria and MQ-H2O. Oxytetracycline (concentrations ranging from 20–0.02 µg/mL, Sigma-Aldrich) and indolicidin (concentration ranging from 200–0.2 µg/mL, Sigma-Aldrich) served as a positive (inhibition) control. The synthetic peptides were tested for antibacterial activity in concentrations ranging from 250 to 0.5 µg/mL in two-fold dilutions. All tests were performed in triplicates.” left out

With `[H]/N=C(\N/C(=N/[H])NCCCCCCNC(=N)NC(=N)Nc1ccc(Cl)cc1)Nc1ccc(Cl)cc1` [Chlorhexidine] the “concentration with no observed membrane activity” value [1] was 0.8 µg/mL, the “concentration with no observed membrane activity” value (E. coli K12 (pCSS962)) was 0.8 µg/mL and the “concentration with no observed membrane activity” value (B. subtilis 168) was 0.8 µg/mL. The “concentration with no observed membrane activity” value (E. coli K12 (pCGLS-11)) was 0.8 µg/mL.
In the case of GKKWWWWKAK-NH2 [StAMP-8], the “Antimicrobial Activity (MIC) Ec” value [2] is reported as 62.5 µg/mL, the “Antimicrobial Activity (MIC) Pa” value [3] is reported as 125 µg/mL and the “Antimicrobial Activity (MIC) Bs” value [4] is reported as 7.8 µg/mL. For the same compound, the “Antimicrobial Activity (MIC) Bm” value (Bacillus megaterium) was 3.9 µg/mL, the “Antimicrobial Activity (MIC) Sa” value [5] was 125 µg/mL and the “Antimicrobial Activity (MIC) Ml” value (Micrococcus luteus) was 15.6 µg/mL. For the same compound, the “Antimicrobial Activity (MIC) Cg” value [6] was 7.8 µg/mL, the “MIC, range against the three fungal strains” value (three fungal strains) was 7.8 to 15.6 µg/mL and the “Antimicrobial Activity (MIC) Ca” value [7] was 15.6 µg/mL. For the same compound, the “Antimicrobial Activity (MIC) Rh” value (Rhodotorula sp.) was 15.6 µg/mL and the “Antimicrobial Activity (MIC) Ap” value (Aureobasidium pullulans) was 7.8 µg/mL.
With GRRPWWWRAR-NH2 [StAMP-9] the “Antimicrobial Activity (MIC) Ec” value [2] was 7.8 µg/mL, the “Antimicrobial Activity (MIC) Pa” value [3] was 31.3 µg/mL and the “Antimicrobial Activity (MIC) Bs” value [4] was 3.9 µg/mL. For the same compound, the “Antimicrobial Activity (MIC) Bm” value (Bacillus megaterium) was 1.0 µg/mL, the “Antimicrobial Activity (MIC) Sa” value [5] was 7.8 µg/mL and the “Antimicrobial Activity (MIC) Ml” value (Micrococcus luteus) was 3.9 µg/mL. For the same compound, the “Antimicrobial Activity (MIC) Cg” value [6] was 2.0 µg/mL, the “MIC values, range against all seven bacterial test strains” value [8] was 1.0 to 31.3 µg/mL and the “Antimicrobial Activity (MIC) Ca” value [7] was 31.3 µg/mL. The “Antimicrobial Activity (MIC) Rh” value (Rhodotorula sp.) was 15.6 µg/mL and the “Antimicrobial Activity (MIC) Ap” value (Aureobasidium pullulans) was 31.3 µg/mL.
GKKPWWWKAK-NH2 [StAMP-7] was tested, and the “MIC values, range against G- strains” value (G- strains) was 31.3 to 250 µg/mL, the “Antimicrobial Activity (MIC) Ec” value [2] was 31.3 µg/mL and the “Antimicrobial Activity (MIC) Pa” value [3] was 250 µg/mL. The “MIC values, range against G+ strains” value (G+ strains) was 1.0 to 125 µg/mL, the “Antimicrobial Activity (MIC) Bs” value [4] was 3.9 µg/mL and the “Antimicrobial Activity (MIC) Bm” value (Bacillus megaterium) was 1.0 µg/mL. The “Antimicrobial Activity (MIC) Sa” value [5] was 125 µg/mL, the “Antimicrobial Activity (MIC) Ml” value (Micrococcus luteus) was 31.3 µg/mL and the “Antimicrobial Activity (MIC) Cg” value [6] was 2.0 µg/mL. The “Antimicrobial Activity (MIC) Ca” value [7] was 31.3 µg/mL, the “Antimicrobial Activity (MIC) Rh” value (Rhodotorula sp.) was 15.6 µg/mL and the “Antimicrobial Activity (MIC) Ap” value (Aureobasidium pullulans) was 15.6 µg/mL.
